Assay results published in patent US11174240B2, “Crystalline solid compound of 3-phenyl-4-propyl-1-(pyridin-2-yl)-1H-pyrazol-5-ol hydrochloride” (Aptabio Therapeutics Inc., priority 2017, dated 2021).

Tests used:
Format in all cases: physicochemical
[1] = Hygroscopicity test (Karl-Fischer water content under accelerated storage); details: for Water content (%) 1 day: 1 day at 40° C. / 75% relative humidity; for Water content (%) 1 day / Water content (%) 3 days / Water content (%) 7 days: Petri dish without sealing; for Water content (%) 3 days: 3 days at 40° C. / 75% relative humidity; for Water content (%) 7 days: 7 days at 40° C. / 75% relative humidity; for Water content (%) Initial: before storage at 40° C. / 75% relative humidity
Method: Hygroscopicity comparison experiments were conducted on each of the crystalline free base compound (Example 1), the crystalline hydrochloride compound (Example 2), the non-crystalline free base compound (Comparative Example 1), the non-crystalline hydrochloride compound (Comparative Example 2) and various crystalline acid addition compounds (Comparative Example 3).
The test compounds were exposed in a Petri dish under accelerated storage conditions at a temperature of 40° C. and a relative humidity of 75% for 7 days without sealing. The water content of each test compound was measured using a Karl-Fischer moisture meter. Table 2 summarizes the water content (%) of each test compound measured during the storage period.

[2] = Stability comparison test (long-term storage, HPLC of decomposition product of Formula 3 and total impurities); details: for Concentration of decomposition product of Formula 3 (%) 6 months / Total impurity concentration (%) 6 months: 6 months at 25° C. / 60% relative humidity
Method: Stability comparison experiments were conducted on each of the crystalline free base compound (Example 1), the crystalline hydrochloride compound (Example 2), the non-crystalline free base compound (Comparative Example 1), the non-crystalline hydrochloride compound (Comparative Example 2) and various crystalline acid addition compounds (Comparative Example 3).
The test compound was stored in a chamber for stability measurement under long-term storage conditions at a temperature of 25° C. and a relative humidity of 60% for 6 months. For storage, each test compound was placed in a double polyethylene bag, and the polyethylene bag was filled with a silica gel pouch and was then placed in a small paper box (fiber drum).
The following Table 3 summarizes the results of the measurement of the concentration of the degradation product of Formula 3 and the total impurity concentration by HPLC analysis after storage under long-term storage conditions for 6 months.
[Analytical Conditions of Liquid Chromatography (HPLC)]
Column temperature: 35° C.
Detector: UV Detector (246 nm)
Gradient condition of mobile phase: […]

[3] = Evaluation of polymorphic transition (PXRD and DSC after storage); details: for DSC endothermic temperature 4 weeks: 4 weeks at 40° C. / 75% relative humidity in polyethylene bag; for DSC endothermic temperature Initial: initial state; for Comparison and determination results (polymorphic transition): initial vs 4 weeks at 40° C. / 75% relative humidity, PXRD and DSC
Method: In order to determine whether or not the polymorphic transition phenomenon occurs under the storage conditions in the crystalline free base compound (Example 1) and the crystalline hydrochloride compound (Example 2), the results of PXRD analysis in the initial state and the possibility of polymorphic transition over time were examined.
Specifically, the test compound was stored in a polyethylene bag in a chamber for stability measurement at a temperature of 40° C. and a relative humidity of 75% for 4 weeks. Also, PXRD and DSC analysis results, measured at the initial state and after 4 weeks, were compared.

SMILES	Water content (%) 1 day [1]	Water content (%) 3 days [1]	Water content (%) 7 days [1]	Water content (%) Initial [1]	Concentration of decomposition product of Formula 3 (%) 6 months [2]	Total impurity concentration (%) 6 months [2]	Concentration of decomposition product of Formula 3 (%) Initial [2]	Total impurity concentration (%) Initial [2]	Water content (%) 1 day ([1]; hydrochloride)	Water content (%) 3 days ([1]; hydrochloride)	Water content (%) 7 days ([1]; hydrochloride)	Water content (%) Initial ([1]; hydrochloride)	Concentration of decomposition product of Formula 3 (%) 6 months ([2]; hydrochloride)	Total impurity concentration (%) 6 months ([2]; hydrochloride)	Concentration of decomposition product of Formula 3 (%) Initial ([2]; hydrochloride)	Total impurity concentration (%) Initial ([2]; hydrochloride)	DSC endothermic temperature 4 weeks [3]	DSC endothermic temperature Initial [3]	Comparison and determination results (polymorphic transition) [3]	Comparison and determination results (polymorphic transition) ([3]; hydrochloride)
CCCc1c(-c2ccccc2)nn(-c2ccccn2)c1O [Comparative Example 1, 3-phenyl-4-propyl-1-(pyridin-2-yl)-1H-pyrazol-5-ol]	1.30%	2.27%	2.95%	0.33%	0.65%	7.58%	0.06%	0.26%	–	–	–	–	–	–	–	–	–	–	–	–
CCCc1c(-c2ccccc2)nn(-c2ccccn2)c1O.Cl [Comparative Example 2, 3-phenyl-4-propyl-1-(pyridin-2-yl)-1H-pyrazol-5-ol hydrochloride]	–	–	–	–	–	–	–	–	1.98%	3.54%	7.52%	0.31%	0.92%	5.87%	0.05%	0.35%	–	–	–	–
CCCc1c(-c2ccccc2)nn(-c2ccccn2)c1O [Example 1, 3-phenyl-4-propyl-1-(pyridin-2-yl)-1H-pyrazol-5-ol]	0.29%	0.32%	0.34%	0.26%	0.09%	0.47%	0.05%	0.32%	–	–	–	–	–	–	–	–	72.8 °C	73.54 °C	no polymorphic transition occurred	–
CCCc1c(-c2ccccc2)nn(-c2ccccn2)c1O.Cl [Example 2, 3-phenyl-4-propyl-1-(pyridin-2-yl)-1H-pyrazol-5-ol hydrochloride]	–	–	–	–	–	–	–	–	0.31%	0.37%	0.39%	0.25%	0.08%	0.45%	0.03%	0.28%	133.4 °C	134.25 °C	–	no polymorphic transition occurred
CCCc1c(-c2ccccc2)nn(-c2ccccn2)c1O [Hemi-1,5-naphthalene disulfonate, 3-phenyl-4-propyl-1-(pyridin-2-yl)-1H-pyrazol-5-ol]	0.12%	0.13%	0.15%	0.12%	0.35%	1.24%	0.08%	0.52%	–	–	–	–	–	–	–	–	–	–	–	–
CCCc1c(-c2ccccc2)nn(-c2ccccn2)c1O [L-malate, 3-phenyl-4-propyl-1-(pyridin-2-yl)-1H-pyrazol-5-ol]	1.58%	1.75%	2.80%	0.45%	0.78%	3.27%	0.12%	0.58%	–	–	–	–	–	–	–	–	–	–	–	–
CCCc1c(-c2ccccc2)nn(-c2ccccn2)c1O [L-tartrate, 3-phenyl-4-propyl-1-(pyridin-2-yl)-1H-pyrazol-5-ol]	0.34%	0.34%	0.38%	0.33%	0.54%	1.85%	0.10%	0.40%	–	–	–	–	–	–	–	–	–	–	–	–
CCCc1c(-c2ccccc2)nn(-c2ccccn2)c1O [Succinate, 3-phenyl-4-propyl-1-(pyridin-2-yl)-1H-pyrazol-5-ol]	0.42%	0.44%	0.48%	0.37%	0.38%	1.65%	0.09%	0.48%	–	–	–	–	–	–	–	–	–	–	–	–
